Reference: patent US7378425B2, “(1-Indanone)-(1,2,3,6-tetrahydropyridine) compounds” (Eisai R & D Management Co., Ltd., priority 2002, dated 2008)
Counter-ions that a name gives are not always drawn. Like-named read-outs stand apart in the source and are kept apart here.

Tests used:
[1] = target: sigma receptor (guinea pig brain crude membrane fraction); experiment: Sigma receptor binding assay (3H-DTG); details: inhibition of 3H-DTG binding to guinea pig brain crude membrane fraction, 25° C., 1 hour
Description: Sigma Receptor Binding Assay
(1) Preparation of Receptor
The washing procedure was repeated once more under the same conditions, and the resulting crude membrane fraction was subjected to the assay.
The specific binding and the non-specific binding in the absence of the test compound were determined in the same way as above except for using 50% DMSO solution instead of the test compound and using a 100 μM Haloperidol solution instead of the test compound, respectively.
(3) Determination of Inhibition
The inhibitions of the test compound at individual concentrations were determined from the ratio of the specific binding in the presence of the test compound to the specific binding in the absence thereof. The dose-response curve was regressed according to a logit-log model in which the ratio of the specific binding in the presence of the test compound to the specific binding in the absence thereof was subjected to logit transformation and plotted against the common logarithm value of each concentration.

[2] = target: T1, acetylcholinesterase (rat brain homogenate) (Rattus norvegicus, UniProt P37136); experiment: biochemical
T1 construct: Using a rat brain homogenate as a source of acetylcholinesterase; from tissue; host or cells: rat brain homogenate
T1 sequence (P37136 32-614): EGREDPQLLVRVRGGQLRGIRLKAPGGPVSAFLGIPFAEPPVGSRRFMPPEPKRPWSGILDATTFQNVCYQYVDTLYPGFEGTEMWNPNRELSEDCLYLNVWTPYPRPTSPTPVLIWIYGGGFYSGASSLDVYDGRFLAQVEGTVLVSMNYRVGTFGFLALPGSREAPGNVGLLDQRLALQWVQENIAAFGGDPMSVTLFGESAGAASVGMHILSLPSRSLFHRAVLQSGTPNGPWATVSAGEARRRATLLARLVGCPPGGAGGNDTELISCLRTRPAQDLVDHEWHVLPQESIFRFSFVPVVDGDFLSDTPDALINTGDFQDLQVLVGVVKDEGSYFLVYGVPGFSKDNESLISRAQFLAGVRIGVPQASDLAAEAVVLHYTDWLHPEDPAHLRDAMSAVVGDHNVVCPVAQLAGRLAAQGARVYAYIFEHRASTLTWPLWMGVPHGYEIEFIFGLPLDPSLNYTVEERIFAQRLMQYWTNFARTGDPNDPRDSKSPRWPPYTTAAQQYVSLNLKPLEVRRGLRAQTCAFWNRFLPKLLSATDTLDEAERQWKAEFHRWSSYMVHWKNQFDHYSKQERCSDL
Description: Inhibitory Effect on Acetylcholinesterase
To DTNB (5,5′-dithiobis(2-nitrobenzoic acid)), acethylthiocholine (as a substrate) and a test compound was added the rat brain homogenate and incubated.

| SMILES | IC50 [1] [nM] | IC50 [2] [nM] | IC50 ([2]; rat brain homogenate, acetylthiocholine substrate, DTNB, absorbance at 412 nm, read-out: Acetylcholinesterase inhibition IC50) [nM] |
| --- | --- | --- | --- |
| CCOc1cc2c(cc1OCC)C(=O)C(CC1=CCN(Cc3ccccc3)CC1)C2 (stereo not shown) [Example 2, 1-benzyl-4-[(5,6-diethoxy-1-indanon)-2-yl]methyl-1,2,3,6-tetrahydropyridine hydrochloride] | 5 |  |  |
| COc1cc2c(cc1OC)C(=O)C(CC1=CCN(Cc3ccccc3)CC1)C2 (stereo not shown) [Example 1, 1-benzyl-4-[(5,6-dimethoxy-1-indanon)-2-yl]methyl-1,2,3,6-tetrahydropyridine hydrochloride] |  | 4.2 |  |
| CCOc1cc2c(cc1OCC)C(=O)C(F)(CC1=CCN(Cc3ccccc3)CC1)C2 (stereo not shown) [Example 3, 1-benzyl-4-[(5,6-diethoxy-2-fluoro-1-indanon)-2-yl]methyl-1,2,3,6-tetrahydropyridine hydrochloride] | 4.7 |  | 0.4 |
